As usually defined, the IC50 is the concentration at which inhibition is half-maximal. As usually defined, the NOAEL is the highest tested level that showed no adverse finding.

For one data set, the target named is HCV replicon. The data set is described as follows: HCV replicon assay (luciferase). The class given is cell-based, Hepatitis C virus (HCV). Particulars: 5-2 Luc replicon cells, 24 hours with compound, luciferase emission; first symbol of Replicon/Western. (In general: Replicon systems follow genome replication, usually without infectious particles.)
Data set [1] has as its system HCV nonstructural protein NS5A. The data set is described as follows: Quantitative Western blot assay. The data set is classed as cell-based, Hepatitis C virus (HCV). The following applies: 9-13 replicon cells, 48 hours with compound, second symbol of Replicon/Western. As for the experimental part:
Alternatively, the inhibitory activity of the compounds can be confirmed using a quantitative Western immunoblot assay utilizing antibodies specific for HCV non-structural proteins, such as NS3, NS4A NS5A and NS5B. In one embodiment of this assay, replicon cells are treated with varying concentrations of test compound to determine the concentration of test compound that yields a 50% reduction in the amount of a non-structural protein produced as compared to a control sample (IC50). A single non-structural protein may be quantified or multiple non-structural proteins may be quantified. Antibodies suitable for carrying out such immunoblot assays are available commercially (e.g., from BIODESIGN International, Saco, Me.).
Certain exemplary compounds of the invention were also tested for their ability to inhibit HCV replication using a quantitative Western blot analysis with antibodies specific for the HCV nonstructural protein NS5A. Actively dividing 9-13 replicon cells were seeded into 6-well plates at a density of 1×10^5 cells/well in a volume of 2 ml/well and incubated at 37° C. and 5% CO2 for 24 hours. Various concentrations of test compounds (in a volume of 10 ul) were added to the wells and the cells incubated for another 48 hours. Protein samples were prepared from the cultured cells, resolved on a SDS-PAGE gel and transferred to a nitrocellulose membrane. The membrane was blocked with 5% non-fat milk in PBS for 1 hour at room temperature. Primary antibody (anti NS5A antibody; BIODESIGN International, Saco, Me.) incubation was performed for 1 hour at room temperature, after which the membrane was washed 3 times (for 15 min per time) with PBST (PBS plus 0.1% Tween 20). Horseradish peroxidase conjugated secondary antibody incubation was performed for 1 hour at room temperature and the membrane was washed 3 times (for 15 min per time) with PBST. The membrane was then soaked in substrate solution (Pierce) and exposed to a film or quantified using an imager. In this assay, the amount of test compound that yielded a 50% reduction in the amount of NS5A protein translated as compared to a control sample (IC50) was determined.

In another data set the test system is HCV virus. The data set is described as follows: HCV infection assay. The class given is cell-based, Hepatitis C virus (HCV). Particulars: hepatocyte cells from a donor, inoculated Day 3, RNA Day 8; read-out: IC50 HCV infection assay (HCV RNA, Taqman). An excerpt:
Alternatively, the inhibitory activity of the compounds may be confirmed in an HCV infection assay, such as the HCV infection assay described in Fournier et al., 1998, J. Gen. Virol. 79(10):2367:2374, the disclosure of which is incorporated herein by reference. In one embodiment of this assay, the amount of test compound that yields a 50% reduction in HCV replication or proliferation as compared to a control cell (IC50) may be determined. The extent of HCV replication may be determined by quantifying the amount of HCV RNA present in HCV infected cells. A specific method for carrying out such an assay is provided in the Examples section.
The activity of Compound 9 was also confirmed in an HCV infection assay. The assay was carried out essentially as described in Fournier et al., 1998, J. Gen. Virol. 79:2367-2374. Briefly, hepatocyte cells from a doner were plated on Day 1. On Day 3, the cells were inoculated with HCV virus and test compound was added. On Day 5, the medium was changed and test compound was added. On Day 7, the medium was changed and test compound was added. On Day 8, the RNA was isolated and the HCV RNA quantified using a Taqman assay.
(In qPCR the cycle at which signal appears reflects the starting amount.)

The nature of data set [2]: Safety studies in rats, subcutaneous and intravenous administration. As for the experimental part:
The safety of compound 9 was evaluated in rats by both subcutaneous and intravenous administration in several experiments. […] The experiments performed are summarized below.
In a second study compound 9 was administered by the IV route at doses of 10 and 30 mg/kg in 100% PEG. The volume administered for the 10 mg/kg dose was 0.67 ml/kg/day and volume given the 30 mg/kg group was 2 ml/kg/day. In addition, there were two control groups. One control received 100% PEG alone at a volume of 2 ml/kg/day while the other was an untreated sham control group. […] Parameters of study included: clinical observations, body weights, hematology, clinical chemistry, gross necropsy, organ weights, bone marrow assessment and histopathology of selected organs.
A vehicle control group received the 100% PEG alone at the same volume. Groups comprised 3 males and 3 females each. Before reducing the dose to 10 and 30 mg/kg two rats received 100 mg/kg IV at a volume of 1 ml/kg. […] Parameters of study included: clinical observations, body weights, hematology, clinical chemistry, gross necropsy, organ weights and histopathology of selected organs (including injection sites).

The nature of data set [3]: Pharmacokinetics, plasma levels with liposome suspension vehicles. The data set is classed as in vivo, rats, monkeys and chimpanzees. Particulars: subcutaneous, liposome suspension vehicles: 5 mg/ml in water with 100 or 200 mg/ml lecithin, or 100 mg/ml lecithin and 5 mg/ml cholesterol. The procedure:
The pharmacokinetic properties of compound 9 were calculated in rats, monkeys and chimpanzees using the intravenous and subcutaneous routes of administration with a variety of different delivery vehicles.

Data set [4] in a line: Toxicokinetic determinations in rats. The following applies: rat.
Data set [5] concerns 5-2 Luc cells, 9-13 cells or Huh-7 cells. The data set is described as follows: Cytotoxicity assay (Cell Titer Glo). The following applies: read-out: IC50 cytotoxicity (number of viable cells), liver cells including an HCV replicon, 24 hr.
Experimental: In the assay, cells were seeded onto 96-well plates (approx. 7500 cells/well in a volume of 90 μl) and grown for 24 hr at 37° C. On day 2, various concentrations of test compound (in a volume of 10 μl) were added to the wells and the cells were grown for an additional 24 hr at 37° C. On day 3, an ATP-dependent R-Luciferase assay (Cell Titer Glo assay) was performed to determine the number of viable cells.

On to `O=C(Nc1cccc(-c2cc(-c3c(Cl)cccc3Cl)no2)c1)C(Cl)Cl` [Compound 9, 2,2-Dichloro-N-[3-[3-(2,6-dichlorophenyl)-5-isoxazolyl]phenyl] Acetamide], for which the IC50 on HCV replicon is at most 10 µM. Moreover, in data set [1], the concentration for half-maximal inhibition (IC50) is at most 10 µM. In addition, the IC50 in the data set on HCV virus was under 10 µM. Besides, the “other findings, second study” value in data set [2] (IV 10 and 30 mg/kg, 7 days) was “no untoward findings”. Besides, the “well tolerated dose, first study” value in data set [2] (Sprague Dawley rats, SC and IV, dose escalation) is at most 30 mg/kg. For the same compound, in data set [2] (first study, Day 5, IV 60 mg/kg in 100% PEG), the “clinical signs at IV 60 mg/kg” value is “immediate clinical signs (collapsing, thrashing, dyspnea and reddish discolored urine) were observed”. Also, the “time for symptoms to abate” value in data set [2] (first study, IV 60 mg/kg) was at most 1 h. Besides, the “NOAEL (no observed adverse effect level)” value in data set [2] (rat, IV, 7 days) is 30 mg/kg. Moreover, the NOAEL in data set [2] (rat, intravenous, 14-days) came out at 30 mg/kg. This compound registered a well tolerated dose in data set [2] (rats, subcutaneous and intravenous) of at most 30 mg/kg/day. In addition, the “hematology finding at 30 mg/kg” value in data set [2] (second study, IV, 100% PEG, 7 days, relative to untreated control but not vehicle control) is “very slight decreases in red blood cells, hemoglobin and hematocrit”. In addition, in data set [2] (third study, IV 10 and 30 mg/kg), the necropsy findings entry is “no gross or microscopic morphological changes”. Besides, the “clinical observations, body weights, hematology, clinical chemistry, organ weights” value in data set [2] (third study, IV 10 and 30 mg/kg, versus vehicle control) is given as “unaffected by treatment”. For the same compound, the “mortality at 100 mg/kg IV” value in data set [2] (third study, two rats, 100 mg/kg IV, 1 ml/kg) is reported as “Both animals died within a minute or two of dosing”. In data set [3], the plasma levels result is “Sustained plasma levels were achieved”. Besides, in data set [4] (IV), the T1/2 result is “about 5 minutes”; the “exposure, IV route” value is “high exposure”; the “persistence of measurable compound” value is listed as “still apparent after 2 hours”. Besides, in data set [4] (SC), the Tmax entry was “about 30 minutes”; the “exposure, subcutaneous route” value is on record as “much lower exposure”; the persistence of exposure entry is “remains sustained through 2 hours post-dosing”.

With `Cc1cc(C)c(-c2cc(-c3cccc(NC(=O)C(Cl)Cl)c3)on2)c(C)c1` [Compound 69, 2,2-Dichloro-N-[3-[3-(2,4,6-trimethylphenyl)-5-isoxazolyl]phenyl] Acetamide], the 50% inhibitory concentration (IC50) was at most 10 µM at HCV replicon and 3 µM in data set [5].

(Values after US6759538B2, “Substituted diphenyl heterocycles useful for treating HCV infection” (priority 2001, dated 2004).)
